Results as given in patent US20070118920A1, “Herbicide-resistant sunflower plants, polynucleotides encoding herbicide-resistant acetohydroxyacid synthase large subunit proteins, and methods of use” (priority 2005, published 2007).

How the values were obtained:
[1] = system: RHA266 (wild-type) sunflower plants; assay: Field trial, tolerance to sulfonylurea herbicides (% injury); assay type: in vivo, Helianthus annuus; details: six-leaf stage
Text: (§1) To evaluate the resistance of MUT9 sunflower plants to sulfonylurea herbicides, RHA266 (wild-type) and MUT9 sunflower plants were planted outdoors in Balcarce, Argentina during the growing season in an RCBD field trial with two replications to evaluate the tolerance of homozygous M5 MUT9 plants to the sulfonylurea herbicides tribenuron methyl (TBM) and thifensulfuron (TFS) at 1× and 2× rates applied at the six-leaf stage. Due to the lack of MUT9 seed, one herbicide was sprayed in each replication. The 1× rates for TBM and TFS are 13.15 g a.i./ha and 4.4 g a.i./ha, respectively.

[2] = system: homozygous M5 MUT9 sunflower plants; assay: as above; assay type: in vivo, Helianthus annuus; details: six-leaf stage
Text: as §1

[3] = rate 2X (1X: TBM 13.15 g a.i./ha, TFS 4.4 g a.i./ha)
[4] = rate 1X (TBM 13.15 g a.i./ha, TFS 4.4 g a.i./ha)

Row | Compound | % Injury [1, 3] [%] | % Injury [2, 4] [%] | % Injury [2, 3] [%] | % Injury [1, 4] [%]
1 | COC(=O)c1ccccc1S(=O)(=O)NC(=O)N(C)c1nc(C)nc(OC)n1 [TBM, tribenuron methyl] | 45 | 75 | 75 | 
2 | COc1nc(C)nc(NC(=O)NS(=O)(=O)c2ccsc2C(=O)O)n1 [TFS, thifensulfuron] | 75 | 75 | 75 | 75
